The results in this text go back to patent US20230398125A1, “TREATING HEPATITIS” (Albireo AB, priority 2022, published 2023).

The target in one data set is T1, Human NTCP (Homo sapiens, UniProt Q14973).
T1 construct: expressed in transfected cells; peptide purchased from Pharmaron
T1 sequence (Q14973 1-349): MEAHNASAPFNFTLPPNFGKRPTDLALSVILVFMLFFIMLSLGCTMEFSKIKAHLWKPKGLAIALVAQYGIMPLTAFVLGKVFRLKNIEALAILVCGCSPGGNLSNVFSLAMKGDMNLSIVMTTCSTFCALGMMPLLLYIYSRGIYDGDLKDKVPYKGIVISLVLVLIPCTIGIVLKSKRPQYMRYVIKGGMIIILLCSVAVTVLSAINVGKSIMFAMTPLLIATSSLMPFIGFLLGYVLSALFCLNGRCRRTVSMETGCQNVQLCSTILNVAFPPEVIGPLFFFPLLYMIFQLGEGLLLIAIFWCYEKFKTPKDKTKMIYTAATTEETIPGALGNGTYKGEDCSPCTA
Nature of the data set: [3H]taurocholate uptake in cell lines expressing human NTCP (Compound 2). The format is cell-based. How it is done:
(§1) NTCP and the related BA transporter apical sodium-dependent BA transporter (ASBT) from human were expressed in cell lines. Inhibition by Compound 2 was studied using [^3]taurocholate as substrate. Cryopreserved human hepatocytes infected with a clinical isolate of HBV were used for infection experiments. Two female non-human primates (NHPs) were dosed with Compound 2 via oral gavage at dose levels of Compound 2 ranging between 3-30 mg/kg once daily for 5 days. Total serum, urine, and fecal BAs were analyzed enzymatically and Compound 2 plasma concentrations were assessed via liquid chromatography-tandem mass spectrometry. The oral pharmacokinetics of Compound 2 was also studied in mice, rats, and dogs.

The next data set addresses T2, ASBT (Homo sapiens, UniProt Q12908).
T2 construct: expressed in transfected cells
T2 sequence (Q12908 1-348): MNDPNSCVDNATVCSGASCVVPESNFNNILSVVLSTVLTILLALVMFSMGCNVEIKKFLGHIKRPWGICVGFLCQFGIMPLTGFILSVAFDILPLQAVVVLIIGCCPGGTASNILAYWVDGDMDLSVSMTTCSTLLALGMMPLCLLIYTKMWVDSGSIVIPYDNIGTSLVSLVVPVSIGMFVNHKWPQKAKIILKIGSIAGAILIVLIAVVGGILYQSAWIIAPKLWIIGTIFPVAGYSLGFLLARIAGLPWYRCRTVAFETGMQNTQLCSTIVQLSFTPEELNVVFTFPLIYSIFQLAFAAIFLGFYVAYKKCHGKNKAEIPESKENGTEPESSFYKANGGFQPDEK
Nature of the data set: [3H]taurocholate uptake in cell lines expressing human ASBT (Compound 2). The class given is cell-based. How it is done: as §1

In another data set the test system is HBV (clinical isolate). Kind of data set: HBV infection of cryopreserved human hepatocytes (Compound 2). The format is cell-based. The settings on record: Hepatitis B virus, Hepatocyte. The procedure:
as §1

In the next data set the test system is human hepatocytes. Nature of the data set: Cell viability of human hepatocytes (Compound 2). The class given is cell-based.
Data set [1] is described as follows: Serum, urine and fecal bile acids and C4 in non-human primates after oral dosing. The class given is in vivo. To be noted: NHPs. The procedure:
as §1

Data set [2] is described as follows: Plasma concentrations of Compound 2 in non-human primates. The class given is in vivo. To be noted: NHPs, 3-30 mg/kg oral once daily for 5 days. The procedure: as §1
Data set [3] can be described thus: Oral pharmacokinetics of Compound 2 in mice, rats and dogs. The class given is in vivo. To be noted: across all species. The procedure: as §1
Data set [4] has as its system HBV (HepG2 AD38 genotype D). Nature of the data set: HBV infection of primary human hepatocytes, extracellular HBV DNA by qPCR. The class given is cell-based, hepatitis B virus. The settings on record: for EC50: Hepatitis B virus, read-out: EC50. (In general: Real-time PCR tracks product formation cycle by cycle.)
The nature of data set [5]: XTT cell toxicity in primary human hepatocytes. The class given is cell-based. The settings on record: human, primary human hepatocytes, read-out: TC50. The procedure:
Multiplicity of Infection (MOI) is defined as the number of HBV genome equivalents, as determined by the qPCR quantitation, added per cell in the respective growth format. The overnight media was removed from the cells and replaced with 190 μL of new, serum-free HI media/4% PEG8000 and 10 μL of the diluted virus stock (HepG2 AD38 genotype D) for a MOI of 500. Medium alone was added to the cells containing compound for the parallel cytotoxicity evaluation. After 18 hours of virus infection, the cells were gently washed five times with DPBS, followed by a new addition of 200 μL HI media containing compounds on day 1, day 4 and day 7 post-infection. In one set of experiments (Study #01), the effect of giving compound 18 h prior to infection, versus 18 h post-infection was studied. The supernatant removed from the cytotoxicity plates at each medium change was stored at −20° C. for shipment to the client. The supernatant was collected at 10 days post infection and stored at −20° C. for total extracellular HBV DNA copy number to be quantitatively determined by qPCR. Cell viability was measured by XTT tetrazolium dye at day 10 for the cytotoxicity plates.
Following incubation at 37° C. in a 5% CO2 incubator for ten days, the test plates were stained with the tetrazolium dye XTT (2,3-bis(2-methoxy-4-nitro-5-sulfophenyl}-5-[(phenylamino)carbonyl]-2H-tetrazolium hydroxide). XTT-tetrazolium was metabolized by the mitochondrial enzymes of metabolically active cells to a soluble formazan product. XTT solution was prepared daily as a stock of 1 mg/mL in RPMI1640. Phenazine methosulfate (PMS) solution was prepared at 0.15 mg/mL in PBS and stored in the dark at −20° C.
XTT/PMS stock was prepared immediately before use by adding 40 μL of PMS per mL of XTT solution. Fifty microliters of XTT/PMS were added to each well of the plate and the plate was re-incubated for 4 hours at 37° C. Plates were sealed with adhesive plate sealers and shaken gently or inverted several times to mix the soluble formazan product and the plate was read spectrophotometrically at 450/650 nm with a Molecular Devices Vmax plate reader.
Each concentration of inhibitor and controls were analyzed in triplicate for HBV DNA copies and for cellular toxicity, respectively. From control wells without inhibitor, the mean of these three replicates was calculated and the HBV DNA mean was set to 100% viral control and the XTT mean was set to 100% cell viability. The effect of compound was then expressed as % of viral control and % cell viability, respectively.
Background: Tetrazolium dyes change colour on reduction, which living cells bring about.

The structures appear in SMILES notation. Where a name gives a salt, the structure may show the parent alone. Read-outs that look alike come from different tables or passages of the source.

In general, IC50 refers to the concentration at which inhibition is half-maximal. Take `CCCCC1CN(c2ccc(F)cc2)c2cc(SC)c(OCC(C)(C)C(=O)O)cc2S(=O)(=O)N1C` (stereo not drawn) [Compound 2, 3-((3-butyl-5-(4-fluorophenyl)-2-methyl-7-(methylthio)-1,1-dioxido-2,3,4,5-tetrahydro-1,2,5-benzothiadiazepin-8-yl)oxy)-2,2-dimethylpropanoic acid]: the figures for the IC50 against Human NTCP, against ASBT and in the data set with HBV (clinical isolate) were 0.0034 µM, 0.193 µM and 0.0135 µM, respectively. Besides, in the data set on human hepatocytes, the “effect on cell viability” value was “without affecting cell viability”. Further, in data set [1], the “levels of fecal BAs” value was “did not change”. For the same compound, the “urine excretion of BAs compared with vehicle” value in data set [1] is reported as “tended to increase”. Moreover, the results for the “serum BAs at 24 hours post-dose” value in [1] (10 mg/kg) and in data set [1] (30 mg/kg) were “returned to baseline” and “still being elevated”, respectively. The “duration of increases in serum BAs” value in data set [1] (10 and 30 mg/kg, Day 1 and Day 5) is given as “at least 8 hours”. In addition, the “levels of 7-alpha-hydroxy-4-cholesten-3-one (C4)” value in data set [1] (after 5 days of repeated dosing) was “did not change”. The “serum BAs” value in [1] (oral dosing, Day 1 and Day 5) is on record as “increased in a dose-dependent manner”. In [2], the “plasma exposure versus dose” value is “increased with dose”. Also, the oral bioavailability result in [3] was “Good oral bioavailability”.

Broadly, the EC50 is the concentration that produces a half-maximal response. In the case of `CC(C)OC(=O)OCOP(=O)(CO[C@H](C)Cn1cnc2c(N)ncnc21)OCOC(=O)OC(C)C` [Tenofovir disoproxil fumarate, reference compound], the concentration for a half-maximal effect (EC50) in data set [4] (HepG2, 18 h, Study #01, compound given 18 h post-infection) amounted to 0.02 µM; in [4] (HepG2, Study #01, compound given 18 h prior to infection, PHH, HBV DNA), 0.043 µM; in data set [4] (HepG2, Study #02, PHH), 0.064 µM; in [4] (HepG2, Study #03, PHH), 0.059 µM. For the same compound, the “antiviral activity/potency when given 18 h post-infection” value in data set [4] (Study #01) is “maintained”. The Max inhibition in data set [4] (Study #01, 18 h post-infection) was 97%; in data set [4] (Study #01, 18 h prior to infection), 96%; in data set [4] (Study #02), 68%; in [4] (Study #03) it was 61%; in data set [4] (Study #03, listed as tenofovir), approximately 60%. Also, the CC50 at 10 days in data set [5] (Study #01, 18 h post-infection section) is more than 1 µM; in [5] (Study #01, XTT, PHH) it was more than 1 µM; in data set [5] (Study #02), more than 0.1 µM; in data set [5] (Study #03), more than 0.1 µM.
